Assay [1] has as its system Male CD-1 mice. Briefly: Biological Example 2: psychostimulant (amphetamine)-induced hyperactivity in mice. The settings on record: for Locomotor activity (beam crosses): over 60 minutes, mean ± sem.
The target in assay [2] is T1, human Kv3.2 channels (hKv3.2) (Homo sapiens, UniProt Q96PR1).
T1 construct: expressed in transfected cells
T1 sequence (Q96PR1 1-638): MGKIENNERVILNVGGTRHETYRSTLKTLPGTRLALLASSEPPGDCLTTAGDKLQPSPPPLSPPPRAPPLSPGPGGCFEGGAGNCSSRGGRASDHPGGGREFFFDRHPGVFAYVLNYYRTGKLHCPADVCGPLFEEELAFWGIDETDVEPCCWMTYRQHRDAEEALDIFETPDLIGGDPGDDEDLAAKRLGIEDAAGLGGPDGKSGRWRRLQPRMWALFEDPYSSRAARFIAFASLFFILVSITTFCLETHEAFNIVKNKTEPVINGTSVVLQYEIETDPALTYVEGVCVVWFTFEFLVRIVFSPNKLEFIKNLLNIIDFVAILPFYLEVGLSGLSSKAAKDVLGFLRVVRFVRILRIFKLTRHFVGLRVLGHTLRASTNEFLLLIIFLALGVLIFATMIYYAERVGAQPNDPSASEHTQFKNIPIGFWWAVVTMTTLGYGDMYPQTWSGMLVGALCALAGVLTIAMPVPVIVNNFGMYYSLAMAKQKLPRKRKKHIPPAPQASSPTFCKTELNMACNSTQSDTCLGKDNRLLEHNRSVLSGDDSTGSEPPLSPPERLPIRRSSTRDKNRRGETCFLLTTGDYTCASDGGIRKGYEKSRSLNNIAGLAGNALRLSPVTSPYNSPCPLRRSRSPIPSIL
The assay can be described thus: Biological Example 1: hKv3.2 whole-cell currents, IonWorks Quattro planar array electrophysiology. The settings on record: hKv3.2, -15 mV voltage step. The format is cell-based. The text has this: The ability of the compounds of the invention to modulate the voltage-gated potassium channel subtypes Kv3.2 or Kv3.1 may be determined using the following assay. Analogous methods may be used to investigate the ability of the compounds of the invention to modulate other channel subtypes, including Kv3.3 and Kv3.4.
To assess compound effects on human Kv3.2 channels (hKv3.2), a stable cell line expressing hKv3.2 was created by transfecting Chinese Hamster Ovary (CHO)-K1 cells with a pClH5-hKv3.2 vector. Cells were cultured in DMEM/F12 medium supplemented by 10% Foetal Bovine Serum, lx non-essential amino acids (Invitrogen) and 500 ug/ml of Hygromycin-B (Invitrogen). Cells were grown and maintained at 37° C. in a humidified environment containing 5% CO2 in air.
The day of the experiment, cells were removed from the incubator and the culture medium removed. Cells were washed with 5 ml of Dulbecco's PBS (DPBS) calcium and magnesium free and detached by the addition of 3 ml Versene (Invitrogen, Italy) followed by a brief incubation at 37° C. for 5 minutes. The flask was tapped to dislodge cells and 10 ml of DPBS containing calcium and magnesium was added to prepare a cell suspension. The cell suspension was then placed into a 15 ml centrifuge tube and centrifuged for 2 min at 1200 rpm. After centrifugation, the supernatant was removed and the cell pellet re-suspended in 4 ml of DPBS containing calcium and magnesium using a 5 ml pipette to break up the pellet. Cell suspension volume was then corrected to give a cell concentration for the assay of approximately 3 million cells per ml.
Experiments were conducted at room temperature using IonWorks Quattro™ planar array electrophysiology technology (Molecular Devices Corp.) with PatchPlate™ PPC. Stimulation protocols and data acquisition were carried out using a microcomputer (Dell Pentium 4). Planar electrode hole resistances (Rp) were determined by applying a 10 mV voltage step across each well. These measurements were performed before cell addition. […] Following this, amphotericin-B solution was added to the intracellular face of the electrode to achieve intracellular access. Cells were held at −70 mV. Leak subtraction was conducted in all experiments by applying 50 ms hyperpolarizing (10 mV) prepulses to evoke leak currents followed by a 20 ms period at the holding potential before test pulses. From the holding potential of −70 mV, a first test pulse to −15 mV was applied for 100 ms and following a further 100 ms at −70 mV, a second pulse to 40 mV was applied for 50 ms. Cells were then maintained for a further 100 ms at −100 mV and then a voltage ramp from −100 mV to 40 mV was applied over 200 ms. Test pulses protocol may be performed in the absence (pre-read) and presence (post-read) of the test compound. Pre- and post-reads may be separated by the compound addition followed by a 3 minute incubation.
The intracellular solution contained the following (in mM): K-gluconate 100, KCl 54, MgCl2 3.2, HEPES 5, adjusted to pH 7.3 with KOH. Amphotericin-B solution was prepared as […] stock solution in DMSO and diluted to a final working concentration of 0.1 mg/ml in intracellular solution.
Compounds of the invention (or reference compounds such as N-cyclohexyl-N-[(7,8-dimethyl-2-oxo-1,2-dihydro-3-quinolinyl)methyl]-N′-phenylurea were dissolved in dimethylsulfoxide (DMSO) at a stock concentration of 10 mM. These solutions were further diluted with DMSO using a Biomek FX
Each dilution (1 μL) was transferred to another compound plate and external solution containing 0.05% pluronic acid (66 μL) was added. 3.5 μL from each plate containing a compound of the invention was added and incubated with the cells during the lonWorks Quattro™ experiment. The final assay dilution was 200 and the final compound concentrations were in the range 50 μM to 50 nM.
A general note: Patch clamp records ionic current or voltage across a cell membrane.

[3] abbreviates: compound 1.6 μM (concentration giving ~0.3 nA current at end of pulse).
Setting [4] is: compound 0.8 μM (concentration giving ~0.3 nA current at end of pulse).
Setting [5] is: compound 0.4 μM (concentration giving ~0.3 nA current at end of pulse).
[6] abbreviates: compound 3.1 μM (concentration giving ~0.3 nA current at end of pulse).

Results on 18 compounds are retold here after patent US10098881B2, “Compounds” (AUTIFONY THERAPEUTICS LIMITED, priority 2011, dated 2018).

`CC(N)Cc1ccccc1` (stereo not shown) [Amphetamine, amphetamine, reference compound]: the “Locomotor activity (beam crosses)” value in assay [1] (amphetamine 2.0 mg/kg i.p. alone) is listed as 16190 ± 2394 beam crosses. In addition, in assay [1] (amphetamine alone, 2 mg/kg i.p.), the total locomotor activity entry is “large and significant increase”.
On to `CN1CCN(C2=Nc3cc(Cl)ccc3Nc3ccccc32)CC1` [Clozapine, reference compound], for which, in assay [1] (AMPH 2 mg/kg i.p. + clozapine i.p. 30 min before (positive control), p<0.001 vs amphetamine alone), the “Locomotor activity (beam crosses)” value is recorded as 1546 ± 420 beam crosses.
With `CC[C@@]1(C)NC(=O)N(c2cnc(Oc3ccc(C)c4c3C3(CC3)CO4)nc2)C1=O` [Example 1, (5R)-5-ethyl-5-methyl-3-[2-(7-methylspiro[2H-benzofuran-3,1′-cyclopropane]-4-yl)oxypyrimidin-5-yl]imidazolidine-2,4-dione], in assay [2] (setting [3]), the Tauact mean came out at 21.3 ms.
Compound `CC[C@@]1(C)NC(=O)N(c2cnc(Oc3ccc(C)c4c3C(C)(C)CO4)nc2)C1=O` [Example 2, (5R)-5-ethyl-5-methyl-3-{2-[(3,3,7-trimethyl-2,3-dihydro-1-benzofuran-4-yl)oxy]-5-pyrimidinyl}-2,4-imidazolidinedione] came in with a Tauact mean in assay [2] (setting [3]) of 14.8 ms.
Consider `CC[C@@]1(C)NC(=O)N(c2cnc(Oc3ccc(C)c4c3OC(F)(F)O4)nc2)C1=O` [Example 3, (5R)-3-{2-[(2,2-difluoro-7-methyl-1,3-benzodioxol-4-yl)oxy]-5-pyrimidinyl}-5-ethyl-5-methyl-2,4-imidazolidinedione], for which the Tauact mean in assay [2] (compound 25.0 μM (concentration giving ~0.3 nA current at end of pulse)) worked out at 8.9 ms.
Consider `CC[C@H]1NC(=O)N(c2cnc(Oc3ccc(C)c4c3C3(CC3)CO4)nc2)C1=O` [Example 5, (5R)-5-ethyl-3-[2-(7-methylspiro[2H-benzofuran-3,1′-cyclopropane]-4-yl)oxypyrimidin-5-yl]imidazolidine-2,4-dione], for which the Tauact mean in assay [2] (setting [4]) was 31.5 ms.
In assay [2] (setting [5]), `CC[C@H]1NC(=O)N(c2ccc(Oc3ccc(C)c4c3C3(CC3)CO4)nc2)C1=O` [Example 6, (5R)-5-ethyl-3-[6-(7-methylspiro[2H-benzofuran-3,1′-cyclopropane]-4-yl)oxy-3-pyridyl]imidazolidine-2,4-dione] came in with a Tauact mean of 34.8 ms.
With `CC[C@H]1NC(=O)N(c2ccc(Oc3ccc(C)c4c3C(C)(C)CO4)nc2)C1=O` [Example 7, (5R)-5-ethyl-3-{6-[(3,3,7-trimethyl-2,3-dihydro-1-benzofuran-4-yl)oxy]-3-pyridinyl}-2,4-imidazolidinedione], the Tauact mean in assay [2] (setting [5]) is 28.0 ms.
On to `CC[C@H]1NC(=O)N(c2cnc(Oc3ccc(C)c4c3C(C)(C)CO4)nc2)C1=O` [Example 8, (5R)-5-ethyl-3-{2-[(3,3,7-trimethyl-2,3-dihydro-1-benzofuran-4-yl)oxy]-5-pyrimidinyl}-2,4-imidazolidinedione], for which, in assay [2] (setting [3]), the Tauact mean was determined as 25.0 ms.
On to `CC[C@@]1(C)NC(=O)N(c2ccc(Oc3ccc(C)c4c3C3(CC3)CO4)nc2)C1=O` [Example 9, (5R)-5-ethyl-5-methyl-3-[6-(7-methylspiro[2H-benzofuran-3,1′-cyclopropane]-4-yl)oxy-3-pyridyl]imidazolidine-2,4-dione], for which the Tauact mean in assay [2] (setting [4]) was 24.0 ms.
Regarding `Cc1ccc(Oc2ccc(N3C(=O)NC(C)(C)C3=O)cn2)c2c1OCC21CC1` [Example 10, 5,5-dimethyl-3-[6-(7-methylspiro[2H-benzofuran-3,1′-cyclopropane]-4-yl)oxy-3-pyridyl]imidazolidine-2,4-dione], in assay [2] (setting [3]), the Tauact mean is recorded as 17.3 ms.
In turn, `CC[C@H]1NC(=O)N(c2ccc(Oc3ccc(C)c(OC)c3)nc2)C1=O` [RE1, (5R)-5-ethyl-3-(6-{[4-methyl-3-(methyloxy)phenyl]oxy}-3-pyridinyl)-2,4-imidazolidinedione, reference compound] showed a Tauact mean in assay [2] (compound 6.25 μM (concentration giving ~0.3 nA current at end of pulse)) of 9.9 ms.
`CC[C@@]1(C)NC(=O)N(c2ccc(Oc3ccc(C)c(OC)c3)nc2)C1=O` [RE2, (5R)-5-ethyl-5-methyl-3-(6-{[4-methyl-3-(methyloxy)phenyl]oxy}-3-pyridinyl)-2,4-imidazolidinedione, reference compound]: in assay [2] (compound 12.5 μM (concentration giving ~0.3 nA current at end of pulse)), the Tauact mean is reported as 7.3 ms.
In assay [2] (compound 0.2 μM (concentration giving ~0.3 nA current at end of pulse)), `CC[C@H]1NC(=O)N(c2ccc(Oc3ccc(C#N)cc3C(C)(C)C)nc2)C1=O` [RE3, 3-(1,1-dimethylethyl)-4-({5-[(4R)-4-ethyl-2,5-dioxo-1-imidazolidinyl]-2-pyridinyl}oxy)benzonitrile, reference compound] displayed a Tauact mean of 23.0 ms.
`CC[C@H]1NC(=O)N(c2ccc(Oc3ccc(C#N)c(C(C)C)c3)nc2)C1=O` [RE4, 4-({5-[(4R)-4-ethyl-2,5-dioxo-1-imidazolidinyl]-2-pyridinyl}oxy)-2-(1-methylethyl)benzonitrile, reference compound] came in with a Tauact mean in assay [2] (setting [4]) of 9.2 ms.
`CC[C@H]1NC(=O)N(c2ccc(Oc3ccc(C#N)cc3C3CC3)nc2)C1=O` [RE5, 3-cyclopropyl-4-({5-[(4R)-4-ethyl-2,5-dioxo-1-imidazolidinyl]-2-pyridinyl}oxy)benzonitrile, reference compound] came in with a Tauact mean in assay [2] (setting [6]) of 13.0 ms.
In assay [2] (setting [6]), `CC[C@H]1NC(=O)N(c2ccc(Oc3ccc(C#N)c(OC(F)(F)F)c3)nc2)C1=O` [RE7, 4-({5-[(4R)-4-ethyl-2,5-dioxo-1-imidazolidinyl]-2-pyridinyl}oxy)-2-[(trifluoromethyl)oxy]benzonitrile, reference compound] returned a Tauact mean of 10.4 ms.
Same read-out and setting: then `CC[C@H]1NC(=O)N(c2ccc(Oc3ccc(C#N)c(OC(C)C)c3)nc2)C1=O` [RE8, 4-({5-[(4R)-4-ethyl-2,5-dioxo-1-imidazolidinyl]-2-pyridinyl}oxy)-2-[(1-methylethyl)oxy]benzonitrile, reference compound], with 9.7 ms.
